We go through 8 compounds from PubChem BioAssay (NCI).

SMILES strings stand for the structures. Values joined by “and” are separate entries in the source; they are usually repeats but may differ in a detail not shown here. Equal entries are not always repeated.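 Where inhibition never reached the appropriate level, the endpoint shown equals the highest concentration tested. Otherwise, values were interpolated linearly from a five-concentration, 48-hour dose response in 96-well plates. At the GI50, growth is halved. TGI: concentration producing complete growth inhibition.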

Among the test systems are ACHN renal; BT-549 breast; CCRF-CEM leukemia; IGROV1 ovarian; OVCAR-4 ovarian; SK-OV-3 ovarian; SNB-19 CNS; U251 CNS; UACC-62 melanoma; UO-31 renal.
What all share (assay): DTP human tumour cell line panel, 48 h

Regarding `Cc1nc2ccccc2c(/C=C/c2ccc(F)cc2)c1C(=O)/C=C/c1ccccc1`, the GI50 in the experiment on ACHN renal is 1.98 µM; in the experiment with BT-549 breast, 2.98 µM; in the experiment on CCRF-CEM leukemia, 2.44 µM; in the experiment on IGROV1 ovarian, 1.71 µM; in the experiment with OVCAR-4 ovarian, 3.66 µM; in the experiment on SK-OV-3 ovarian it was 4.72 µM. Further, the GI50 in the experiment on SNB-19 CNS was 1.88 µM; with U251 CNS it was 1.74 µM; with UACC-62 melanoma, 1.86 µM; in the experiment with UO-31 renal, 1.29 µM. The concentration for total growth inhibition (TGI) was 4.65 µM in the experiment with ACHN renal; 13.6 µM in the experiment with BT-549 breast; more than 100 µM with CCRF-CEM leukemia; 6.15 µM in the experiment on IGROV1 ovarian; more than 100 µM with OVCAR-4 ovarian; more than 100 µM in the experiment with SK-OV-3 ovarian. In addition, the TGI is 4.02 µM in the experiment with SNB-19 CNS, 3.18 µM with U251 CNS, 4.04 µM in the experiment with UACC-62 melanoma and 2.67 µM in the experiment on UO-31 renal.

In the case of `O=NN(CC(=O)NNc1ccccc1)CC(=O)NNc1ccccc1`, the TGI with ACHN renal, in the experiment on BT-549 breast, in the experiment on CCRF-CEM leukemia, in the experiment on IGROV1 ovarian, in the experiment on OVCAR-4 ovarian and in the experiment on SK-OV-3 ovarian was more than 100 µM each time. Further, the concentration for total growth inhibition (TGI) is more than 100 µM in the experiment with SNB-19 CNS, more than 100 µM in the experiment with U251 CNS, 7.9 µM in the experiment with UACC-62 melanoma and more than 100 µM in the experiment on UO-31 renal. The GI50 in the experiment on BT-549 breast was more than 28.7 µM; in the experiment with CCRF-CEM leukemia it was 5 µM; in the experiment with IGROV1 ovarian, more than 64 µM; with SK-OV-3 ovarian, more than 100 µM; in the experiment on SNB-19 CNS it was more than 100 µM; with U251 CNS, more than 100 µM. The GI50 with UACC-62 melanoma is 0.479 µM; in the experiment with UO-31 renal it was 2.22 µM.

For the compound `CC(C)C[C@H](NC(=O)[C@@H](N)Cc1cccc2ccccc12)B(O)O`, the GI50 with ACHN renal is less than 0.01 µM; in the experiment on BT-549 breast, 0.87 µM; in the experiment on CCRF-CEM leukemia it was 0.0724 µM and < 0.01 µM; in the experiment with IGROV1 ovarian it was 0.836 µM; in the experiment on OVCAR-4 ovarian, 0.0384 µM; with SK-OV-3 ovarian, 2 µM. Further, the GI50 in the experiment with SNB-19 CNS is 0.11 µM; with U251 CNS it was 0.392 µM; in the experiment on UACC-62 melanoma, 0.425 µM; with UO-31 renal it was 0.739 µM. The TGI is 50 µM and > 100 µM in the experiment on ACHN renal; 50 µM and > 100 µM in the experiment on SNB-19 CNS; 1.28 µM and 0.148 µM in the experiment with UACC-62 melanoma.

On to `CCCCCCCCCCCCNCCCc1ccccc1`, for which the GI50 with ACHN renal is 1.8 µM; in the experiment with BT-549 breast, 1.75 µM; with CCRF-CEM leukemia, 2.15 µM; in the experiment with IGROV1 ovarian, 1.93 µM; with OVCAR-4 ovarian it was 1.57 µM; in the experiment with SK-OV-3 ovarian, 2.37 µM. Also, the GI50 with SNB-19 CNS was 2.07 µM; with U251 CNS, 1.53 µM; with UACC-62 melanoma, 1.76 µM; in the experiment with UO-31 renal it was 1.86 µM. In addition, the TGI with ACHN renal came out at 3.5 µM; in the experiment on BT-549 breast, 3.19 µM; with CCRF-CEM leukemia, 5.32 µM; with IGROV1 ovarian, 3.49 µM; in the experiment with OVCAR-4 ovarian it was 2.98 µM; with SK-OV-3 ovarian it was 5.37 µM. The TGI with SNB-19 CNS was 5.35 µM; in the experiment on U251 CNS, 2.86 µM; in the experiment with UACC-62 melanoma, 3.29 µM; in the experiment with UO-31 renal, 4.35 µM.

In the case of `O=C1C2C3C=CC(C2C(=O)N1CN1CCOCC1)C1C2C(=O)N(CN4CCOCC4)C(=O)C2C31` (stereo unspecified), the concentration for total growth inhibition (TGI) with ACHN renal is more than 91.5 µM; in the experiment with BT-549 breast it was more than 100 µM; with CCRF-CEM leukemia it was 57.9 µM; in the experiment on IGROV1 ovarian, more than 94.6 µM; with OVCAR-4 ovarian it was more than 60.4 µM; in the experiment on SK-OV-3 ovarian it was more than 100 µM. Besides, the TGI with SNB-19 CNS is more than 78.9 µM; in the experiment with U251 CNS, more than 63.2 µM; in the experiment on UACC-62 melanoma it was more than 63 µM; with UO-31 renal, more than 84.6 µM.

For `C(#Cc1ccccc1C#Cc1cnccn1)c1cnccn1`, the GI50 is 19.2 µM in the experiment on ACHN renal; 21.6 µM in the experiment with BT-549 breast; 32.3 µM in the experiment on CCRF-CEM leukemia; more than 22.9 µM with IGROV1 ovarian; 38.3 µM with OVCAR-4 ovarian; 56 µM with SK-OV-3 ovarian. The GI50 in the experiment on SNB-19 CNS was more than 100 µM; with U251 CNS, 48 µM; in the experiment with UACC-62 melanoma, 17.5 µM; in the experiment on UO-31 renal, more than 40.3 µM. Besides, the TGI is more than 68.9 µM in the experiment on ACHN renal; more than 85.8 µM in the experiment with BT-549 breast; more than 100 µM in the experiment on CCRF-CEM leukemia; more than 47.9 µM in the experiment with IGROV1 ovarian; more than 100 µM in the experiment on OVCAR-4 ovarian; more than 100 µM in the experiment on SK-OV-3 ovarian. For the same compound, the TGI with SNB-19 CNS was more than 100 µM; in the experiment on U251 CNS, more than 100 µM; in the experiment on UACC-62 melanoma it was 51.4 µM; in the experiment on UO-31 renal, more than 68.4 µM.

Take `CCn1cnc(C[C@H](NC(=O)[C@@H](NC(=O)Nc2cc(C(F)(F)F)cc(C(F)(F)F)c2)C(C)(C)C)C(=O)OC)c1`: the GI50 with ACHN renal, with BT-549 breast, in the experiment with CCRF-CEM leukemia, in the experiment with IGROV1 ovarian, in the experiment on OVCAR-4 ovarian and in the experiment on SK-OV-3 ovarian was more than 10 µM throughout. The GI50 in the experiment on SNB-19 CNS, in the experiment with U251 CNS, with UACC-62 melanoma and in the experiment with UO-31 renal was more than 10 µM in each case. The TGI with ACHN renal, in the experiment on BT-549 breast, in the experiment on CCRF-CEM leukemia, in the experiment with IGROV1 ovarian, in the experiment with OVCAR-4 ovarian and in the experiment on SK-OV-3 ovarian was more than 10 µM throughout. Moreover, the TGI with SNB-19 CNS, in the experiment with U251 CNS, in the experiment with UACC-62 melanoma and with UO-31 renal was more than 10 µM throughout.

For `COc1cccc(/C=C2\COc3ccc(O)c(O)c3C2=O)c1OC`, the GI50 with ACHN renal is 3.27 µM; in the experiment with BT-549 breast, 1.89 µM; with CCRF-CEM leukemia, 0.61 µM; in the experiment on IGROV1 ovarian, 2.62 µM; in the experiment on OVCAR-4 ovarian, 2.17 µM; in the experiment on SK-OV-3 ovarian it was 7.18 µM. Further, the GI50 in the experiment on SNB-19 CNS is 3.07 µM; in the experiment on U251 CNS, 2 µM; in the experiment with UACC-62 melanoma, 1.8 µM; in the experiment with UO-31 renal it was 1.1 µM. Further, the TGI in the experiment on ACHN renal is 12.2 µM; in the experiment with BT-549 breast, 8.7 µM; in the experiment on CCRF-CEM leukemia, more than 100 µM; in the experiment with IGROV1 ovarian it was 10.9 µM; in the experiment on OVCAR-4 ovarian, 8.47 µM; with SK-OV-3 ovarian, 21 µM. Moreover, the TGI came to 12 µM in the experiment with SNB-19 CNS, 10.5 µM in the experiment with U251 CNS, 4.53 µM in the experiment with UACC-62 melanoma and 2.4 µM in the experiment on UO-31 renal.
